pEC50: −log10 of the molar value. Like-named read-outs stand apart in the source and are kept apart here.
Assays:
[1] = target: T1, PPARα (Homo sapiens, UniProt Q07869); test: Gal4-PPARα(LBD) reporter gene agonistic activity assay in Cos-7 cells; type: cell-based; settings: for pEC50: Cos-7 cells, Gal4-PPARα(LBD) reporter, 16 h, 100% = GW7647 10 nM; for agonistic activity for PPARα (EC50 level, in words): Cos-7 reporter assay
T1 construct: hPPARα (279aa-580aa); expressed in transfected cells; host or cells: Cos-7
T1 sequence (Q07869 167-468 limits assumed): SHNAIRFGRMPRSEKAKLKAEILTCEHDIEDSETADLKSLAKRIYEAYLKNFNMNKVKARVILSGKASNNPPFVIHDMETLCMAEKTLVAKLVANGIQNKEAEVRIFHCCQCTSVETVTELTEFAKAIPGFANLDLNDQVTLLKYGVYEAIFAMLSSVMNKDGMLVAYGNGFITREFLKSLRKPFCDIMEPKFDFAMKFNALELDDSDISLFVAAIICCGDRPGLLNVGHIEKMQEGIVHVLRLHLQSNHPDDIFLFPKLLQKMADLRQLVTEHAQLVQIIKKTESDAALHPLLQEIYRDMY
Method: (§1) Cos-7 cells (African green monkey kidney fibroblasts, commonly used tool cells) were cultured in a 10 cm cell culture dish in a DMEM complete medium containing 10% fetal bovine serum. When the cells grew to a density of about 70%, the medium was replaced with a fresh medium for later transfection. […] The plasmid working solution was then added to the cell culture dish for cell transfection. […] Test compounds were prepared into appropriate test concentrations with a complete medium and then added to the 96-well plate. […] 10 μL of lysate was pipetted into a white opaque 384-well plate, and then 10 μL of reporter gene assay buffer (purchased from Shanghai Beyotime Biological Tech. Co., Ltd.) was added. The bioluminescence was detected by using a multimode microplate reader, and the corresponding half maximal effective concentration (EC50) value was calculated according to the detection value.

[2] = target: T2, PPARδ (Homo sapiens, UniProt Q03181); test: Gal4-PPARδ(LBD) reporter gene agonistic activity assay in Cos-7 cells; type: cell-based; settings: for agonistic activity for PPARδ (EC50 level, in words): Cos-7 reporter assay
T2 construct: expressed in transfected cells; host or cells: Cos-7
T2 sequence (Q03181 139-441 limits assumed): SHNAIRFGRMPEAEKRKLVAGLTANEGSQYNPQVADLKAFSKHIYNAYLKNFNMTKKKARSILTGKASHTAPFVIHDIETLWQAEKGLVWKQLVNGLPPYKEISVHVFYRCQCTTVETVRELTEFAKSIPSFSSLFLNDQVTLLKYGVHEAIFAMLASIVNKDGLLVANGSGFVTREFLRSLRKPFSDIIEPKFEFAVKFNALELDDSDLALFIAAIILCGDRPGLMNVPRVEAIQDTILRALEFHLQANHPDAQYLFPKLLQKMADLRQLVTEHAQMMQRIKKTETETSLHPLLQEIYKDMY
Method: as §1

[3] = target: T3, PPARγ (Homo sapiens, UniProt P37231); test: Gal4-PPARγ(LBD) reporter gene agonistic activity assay in Cos-7 cells; type: cell-based
T3 construct: hPPARγ (281aa-554aa); expressed in transfected cells; host or cells: Cos-7
T3 sequence (P37231 232-505 limits assumed): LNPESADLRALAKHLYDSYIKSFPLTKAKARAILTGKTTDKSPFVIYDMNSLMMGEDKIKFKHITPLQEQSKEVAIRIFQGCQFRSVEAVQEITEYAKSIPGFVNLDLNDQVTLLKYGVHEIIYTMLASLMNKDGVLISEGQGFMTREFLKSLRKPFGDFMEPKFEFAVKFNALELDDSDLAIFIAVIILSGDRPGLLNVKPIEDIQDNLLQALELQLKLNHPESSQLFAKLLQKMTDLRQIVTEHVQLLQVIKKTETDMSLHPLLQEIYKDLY
Method: as §1

[4] = Metabolic stability in human liver microsomes; type: in vitro ADME; settings: for half-life: human liver microsomes 0.75 mg/mL, NADPH, 0-60 min
Method: A 500 μM solution of the compound in acetonitrile was prepared and diluted to obtain a 1.5 μM drug working solution with a 0.1 M potassium phosphate solution. The drug working solution was co-incubated with a human liver microsome working solution at a final concentration of 0.75 mg/mL and an NADPH solution (final concentration: 550 μM), and the incubation was terminated by adding an acetonitrile solution at 0 min, 15 min, 30 min, 45 min, and 60 min. The residual amount of the compound that remained in the system at each time point was detected by using LC/MS. The absolute value k of the slope was determined by plotting the natural logarithm of the percentage of the residual amount of the compound with the time, and the calculation was performed according to the formula: T1/2 (half-life)=ln2/k=0.693/k.

[5] = Cos-7 cells, Gal4-PPARδ(LBD) reporter, 16 h, 100% = GW501516 10 nM
[6] = Cos-7 cells, Gal4-PPARγ(LBD) reporter, 16 h, 100% = Rosiglitazone 1 μM

SMILES	pEC50 [1]	pEC50 [2, 5]	pEC50 [3, 6]	agonistic activity for PPARα (EC50 level, in words) [1]	agonistic activity for PPARδ (EC50 level, in words) [2]	pEC50 [3]	metabolic stability in human liver microsomes (in words) [4]	half-life [4]	pEC50 [2]
Cc1cc(Cn2ncn(-c3ccc(OC(F)(F)F)cc3)c2=O)ccc1OC(C)(C)C(=O)O [Compound 79, 2-Methyl-2-(2-methyl-4-((5-oxo-4-(4-(trifluoromethoxy)phenyl)-4,5-dihydro-1H-1,2,4-triazol-1-yl)methyl)phenoxy)propionic acid]	6.47	6.21	5.72						
CC(C)(Oc1ccc(Cn2ncn(-c3ccc(OC(F)(F)F)cc3)c2=O)cc1Cl)C(=O)O [Compound 105]	6.76	6.49	5.31						
CC(C)(Oc1ccc(Cn2ncn(-c3ccc(OC(F)(F)F)cc3)c2=O)cc1OC(F)(F)F)C(=O)O [Compound 103, 2-Methyl-2-(4-((5-oxo-4-(4-(trifluoromethoxy)phenyl)-4,5-dihydro-1H-1,2,4-triazol-1-yl)methyl)-2-(trifluoromethoxy)phenoxy)propionic acid]	6.67	6.56	5.33						
CCc1cc(Cn2ncn(-c3ccc(OC(F)(F)F)cc3)c2=O)cc(CC)c1OC(C)(C)C(=O)O [Compound 189, 2-(2,6-Diethyl-4-((5-oxo-4-(4-(trifluoromethoxy)phenyl)-4,5-dihydro-1H-1,2,4-triazol-1-yl)methyl)phenoxy)-2-methylpropionic acid]	7.23	7.38		at nanomolar levels	at nanomolar levels	5.66			
Cc1cc(SCn2ncn(-c3ccc(C(F)(F)F)cc3)c2=O)ccc1OCC(=O)O [Compound 16, 2-(2-Methyl-4-(((5-oxo-4-(4-(trifluoromethyl)phenyl)-4,5-dihydro-1H-1,2,4-triazol-1-yl)methyl)thio)phenoxy)acetic acid]							very good metabolic stability in human liver microsomes	> 2 h	
CC(C)(Oc1ccc(Cn2ncn(-c3ccc(OC(F)(F)F)cc3)c2=O)cc1C(F)(F)F)C(=O)O [Compound 157, 2-Methyl-2-(4-((5-oxo-4-(4-(trifluoromethoxy)phenyl)-4,5-dihydro-1H-1,2,4-triazol-1-yl)methyl)-2-(trifluoromethyl)phenoxy)propionic acid]	6.56		5.78						
Cc1cc(Cn2ncn(-c3ccc(C(F)(F)F)cc3)c2=O)cc(Cl)c1OC(C)(C)C(=O)O [Compound 143, 2-(2-Chloro-6-methyl-4-((5-oxo-4-(4-(trifluoromethyl)phenyl)-4,5-dihydro-1H-1,2,4-triazol-1-yl)methyl)phenoxy)-2-methylpropionic acid]	8.05		5.75	at nanomolar levels	at nanomolar levels		very good metabolic stability in human liver microsomes	> 2 h	7.82
Cc1cc(Cn2ncn(-c3ccccc3)c2=O)cc(C)c1OC(C)(C)C(=O)O [Compound 63, 2-(2,6-Dimethyl-4-((5-oxo-4-phenyl-4,5-dihydro-1H-1,2,4-triazol-1-yl)methyl)phenoxy)-2-methylpropionic acid]	5.99					5.06			
CC(C)(Oc1ccc(Cn2ncn(-c3ccc(C(F)(F)F)cc3)c2=O)cc1Cl)C(=O)O [Compound 125, 2-(2-Chloro-4-((5-oxo-4-(4-(trifluoromethyl)phenyl)-4,5-dihydro-1H-1,2,4-triazol-1-yl)methyl)phenoxy)-2-methylpropionic acid]	6.79	6.64	5.56						
CC(C)(Oc1c(Cl)cc(Cn2ncn(-c3ccc(C(F)(F)F)cc3)c2=O)cc1Cl)C(=O)O [Compound 129, 2-(2,6-Dichloro-4-((5-oxo-4-(4-(trifluoromethyl)phenyl)-4,5-dihydro-1H-1,2,4-triazol-1-yl)methyl)phenoxy)-2-methylpropionic acid]	7.64		5.31	at nanomolar levels			very good metabolic stability in human liver microsomes	> 2 h	
Cc1cc(Cn2ncn(-c3ccc(C(F)(F)F)cc3)c2=O)cc(C(F)(F)F)c1OC(C)(C)C(=O)O [Compound 165, 2-Methyl-2-(2-methyl-4-((5-oxo-4-(4-(trifluoromethyl)phenyl)-4,5-dihydro-1H-1,2,4-triazol-1-yl)methyl)-6-(trifluoromethyl)phenoxy)propionic acid]			6.09		at nanomolar levels		very good metabolic stability in human liver microsomes	> 2 h	9.00
Cc1ccc(-n2cnn(Cc3cc(C)c(OC(C)(C)C(=O)O)c(C)c3)c2=O)cc1 [Compound 65, 2-(2,6-Dimethyl-4-((5-oxo-4-(p-tolyl)-4,5-dihydro-1H-1,2,4-triazol-1-yl)methyl)phenoxy)-2-methylpropionic acid]	6.74	6.61	6.02						
Cc1cc(Cn2ncn(-c3ccc(Br)cc3)c2=O)cc(C)c1OC(C)(C)C(=O)O [Compound 55, 2-(4-((4-(4-Bromophenyl)-5-oxo-4,5-dihydro-1H-1,2,4-triazol-1-yl)methyl)-2,6-dimethylphenoxy)-2-methylpropionic acid]			5.75		at nanomolar levels		very good metabolic stability in human liver microsomes	> 2 h	7.66
COc1ccc(-n2cnn(Cc3cc(C)c(OC(C)(C)C(=O)O)c(C)c3)c2=O)cc1 [Compound 107, 2-(4-((4-(4-Methoxyphenyl)-5-oxo-4,5-dihydro-1H-1,2,4-triazol-1-yl)methyl)-2,6-dimethylphenoxy)-2-methylpropionic acid]	6.84	6.56	5.69						
Cc1cc(Cn2ncn(-c3ccc(Cl)cc3)c2=O)cc(C)c1OC(C)(C)C(=O)O [Compound 67, 2-(4-((4-(4-Chlorophenyl)-5-oxo-4,5-dihydro-1H-1,2,4-triazol-1-yl)methyl)-2,6-dimethylphenoxy)-2-methylpropionic acid]	6.78	7.33	5.74						
CCc1ccc(-n2cnn(Cc3cc(C)c(OC(C)(C)C(=O)O)c(C)c3)c2=O)cc1 [Compound 131, 2-(4-((4-(4-Ethylphenyl)-5-oxo-4,5-dihydro-1H-1,2,4-triazol-1-yl)methyl)-2,6-dimethylphenoxy)-2-methylpropionic acid]	7.85	7.17	5.93	at nanomolar levels	at nanomolar levels		very good metabolic stability in human liver microsomes	> 2 h	

— patent US20250188044A1 (HARBIN MEDISAN PHARMACEUTICAL CO., LTD., priority 2021, published 2025)
